Where no end group is shown, it is not given here.
What was measured:
[1] = system: RAW264 macrophages induced with meningococcal CPS polymers; assay: Nitric oxide release from RAW264 macrophages induced with meningococcal CPS polymers, Greiss method; type: cell-based, murine; settings: RAW264, CPS doses preincubated with 2 µg/mL peptide 30 min at 37 °C, overnight, Figure 7, result in words
Protocol: Figure 7 PG-1 analogs neutralized meningococcal capsular polysaccharide (CPS) polymer activity and inhibited nitric oxide release. CPS polymers were purified from the endotoxin-deficient serogroup B meningococcal NMB-lpxA mutant designated CPS. Nitric oxide was released from murine RAW264 macrophages induced overnight with doses of meningococcal CPS polymers pre-incubated with or without 2 µg/mL of PG-1 or its analogs for 30 min at 37 °C. Nitric oxide release was measured by the Greiss method. Error bars represent ±SD from the mean of duplicate measurements. This experiment is representative of two independent experiments.
Human THP-1 (monocyte-like cells) and murine RAW264 macrophages were stimulated with TLR ligands with or without preincubation with PG-1 and its analogs (Table 1). Purified meningococcal CPS samples were freshly dissolved in pyrogen-free sterile H2O at 1 mg/mL stock concentration and vortexed for 2 min. […]
(§1) Freshly grown adherent RAW264 macrophages were harvested, washed and re-suspended in Dulbecco’s complete media, counted and adjusted to 10^6 cell/mL. […] Nitric oxide release was quantified using the Greiss chemical method, as previously described.

[2] = system: RAW264 macrophages induced with meningococcal LOS; assay: Nitric oxide release from RAW264 macrophages induced with meningococcal LOS, Greiss method; type: cell-based, murine; settings: RAW264, LOS doses preincubated with 2 µg/mL peptide 30 min at 37 °C, overnight, Figure 6, result in words
Protocol: Figure 6 PG-1 analogs neutralized meningococcal LOS bioactivity and inhibited nitric oxide release. Nitric oxide was released from murine RAW264 macrophages induced overnight with meningococcal LOS doses pre-incubated with or without 2 µg/mL of PG-1 or its analogs for 30 min at 37 °C. Nitric oxide release was measured by the Greiss method. Error bars represent ± SD from the mean of duplicate measurements. This experiment is representative of two independent experiments.
Human THP-1 (monocyte-like cells) and murine RAW264 macrophages were stimulated with TLR ligands with or without preincubation with PG-1 and its analogs (Table 1). Purified meningococcal CPS samples were freshly dissolved in pyrogen-free sterile H2O at 1 mg/mL stock concentration and vortexed for 2 min. Working CPS concentrations (ranging from 100 µg/mL to 1 µg/mL) were made in duplicate wells using sterile PBS by serial fold dilutions in the 96-well tissue culture plates (Becton Dickinson, Franklin Lakes, NJ, USA) at 50 µL final volumes. PG-1 analogs (2 µg/mL) or PBS equivalent volumes were added to designated wells and preincubated for 30 min at 37 °C. […]
as §1

[3] = system: meningococcal LOS (TLR4 ligand); assay: Inhibition of meningococcal LOS activity in macrophages (Table 1); type: cell-based, Neisseria meningitidis; settings: peptide 2 µg/mL preincubated with meningococcal LOS 30 min at 37 °C, macrophages stimulated overnight; read-out behind the % not stated in Table 1
Protocol: (§2) Human THP-1 (monocyte-like cells) and murine RAW264 macrophages were stimulated with TLR ligands with or without preincubation with PG-1 and its analogs (Table 1). Purified meningococcal CPS samples were freshly dissolved in pyrogen-free sterile H2O at 1 mg/mL stock concentration and vortexed for 2 min. Working CPS concentrations (ranging from 100 µg/mL to 1 µg/mL) were made in duplicate wells using sterile PBS by serial fold dilutions in the 96-well tissue culture plates (Becton Dickinson, Franklin Lakes, NJ, USA) at 50 µL final volumes. PG-1 analogs (2 µg/mL) or PBS equivalent volumes were added to designated wells and preincubated for 30 min at 37 °C. Freshly grown THP-1 cells and murine macrophages, each adjusted to 10^6 cell/mL and 250 µL aliquots, were dispensed into each well at a final cell density of 250 × 10^3 in the designated 96-well plates. The plates were incubated overnight at 37 °C with 5% CO2 and humidity. Supernatants from stimulated cells were harvested and stored at −20 °C until use.
(§3) The cytokines TNFα and IL-1β, released from THP-1 cells, were quantified by DuoSet ELISA (R&D Systems), as previously described. […]
as §1

[4] = system: meningococcal capsular polysaccharide (CPS) polymers (TLR2 and TLR4 ligand); assay: Inhibition of meningococcal CPS polymer activity in macrophages (Table 1); type: cell-based, Neisseria meningitidis; settings: peptide 2 µg/mL preincubated with meningococcal CPS polymers 30 min at 37 °C, macrophages stimulated overnight; read-out behind the % not stated in Table 1
Protocol: as §2, §3, §1

Substance: Compound 8: linearized non-cysteine PG-1 analog with alanine replacements (RGGRLAYARRRFAVAVGR-NH2)
- Inhibition of nitric oxide release (neutralization of CPS) [1]: failed to inhibit
- Inhibition of nitric oxide release (neutralization of LOS) [2]: failed to inhibit
- LOS activity inhibition (%) [3]: 33%
- CPS activity inhibition (%) [4]: 23%

Substance: Protegrin-1 (RGGRLCYCRRRFCVCVGR; not fully specified; cysteine pairing not given here) [Compound 1, native porcine PG-1, 18-residue β-hairpin peptide with two disulfide bridges]
- LOS activity inhibition (%) [3]: 99.9%
- CPS activity inhibition (%) [4]: 99%
